For test [1], the target named is T1, Zinc metalloproteinase dpy-31 (Brugia malayi, UniProt A8Q2D1).
T1 sequence (A8Q2D1 whole entry): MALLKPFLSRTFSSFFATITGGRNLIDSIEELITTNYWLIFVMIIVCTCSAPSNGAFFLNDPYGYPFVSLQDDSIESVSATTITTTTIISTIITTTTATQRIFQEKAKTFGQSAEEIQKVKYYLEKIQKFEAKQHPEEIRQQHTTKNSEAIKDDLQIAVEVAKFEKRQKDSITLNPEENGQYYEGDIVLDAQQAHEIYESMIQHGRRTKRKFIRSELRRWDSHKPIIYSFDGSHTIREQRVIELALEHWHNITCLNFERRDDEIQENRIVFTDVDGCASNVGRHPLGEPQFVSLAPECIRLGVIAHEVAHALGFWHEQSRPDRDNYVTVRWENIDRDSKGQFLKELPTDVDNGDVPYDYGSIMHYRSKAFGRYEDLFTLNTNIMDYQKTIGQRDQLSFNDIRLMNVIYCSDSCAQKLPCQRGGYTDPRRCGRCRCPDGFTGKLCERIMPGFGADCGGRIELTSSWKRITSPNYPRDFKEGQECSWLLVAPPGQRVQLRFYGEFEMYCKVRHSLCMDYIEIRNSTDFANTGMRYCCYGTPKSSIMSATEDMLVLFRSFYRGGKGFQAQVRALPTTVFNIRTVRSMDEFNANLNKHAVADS
Put plainly: Inhibition of recombinant Brugia malayi DPY-31 astacin domain expressed in Escherichia coli using Suc-Ala-Ala-Ala-pNA as substrate preincubated for 3 hrs followed by substrate addition measured after 3 hrs by microplate reader assay.

The target in test [2] is T2, Zinc metalloproteinase dpy-31 (Teladorsagia circumcincta, UniProt A0A0C5PRQ1).
T2 sequence (A0A0C5PRQ1 whole entry): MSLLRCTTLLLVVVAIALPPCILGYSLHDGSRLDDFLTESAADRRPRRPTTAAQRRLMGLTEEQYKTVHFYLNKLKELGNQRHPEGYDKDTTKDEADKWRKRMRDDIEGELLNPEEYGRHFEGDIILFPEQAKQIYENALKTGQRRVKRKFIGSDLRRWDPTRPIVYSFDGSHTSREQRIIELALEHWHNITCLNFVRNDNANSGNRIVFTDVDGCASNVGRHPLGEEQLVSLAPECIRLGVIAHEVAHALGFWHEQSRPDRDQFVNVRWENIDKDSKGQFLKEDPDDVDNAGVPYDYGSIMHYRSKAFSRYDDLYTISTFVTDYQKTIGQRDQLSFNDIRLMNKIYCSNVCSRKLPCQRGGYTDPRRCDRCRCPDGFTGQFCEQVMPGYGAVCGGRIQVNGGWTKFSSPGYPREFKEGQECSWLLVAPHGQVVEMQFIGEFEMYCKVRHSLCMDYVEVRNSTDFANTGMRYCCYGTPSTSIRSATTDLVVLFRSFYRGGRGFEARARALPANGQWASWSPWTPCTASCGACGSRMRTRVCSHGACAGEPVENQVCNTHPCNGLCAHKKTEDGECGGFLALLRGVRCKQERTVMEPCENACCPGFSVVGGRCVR
Briefly: Inhibition of recombinant Teladorsagia circumcincta DPY-31 astacin domain expressed in Escherichia coli using Suc-Ala-Ala-Ala-pNA as substrate preincubated for 3 hrs followed by substrate addition measured after 3 hrs by microplate reader assay.

The subject of test [3] is Caenorhabditis elegans. Put plainly: Antiparasitic activity against wild type Caenorhabditis elegans N2 assessed as induction of Dpy phenotype at 50 uM measured after 3 days by microscopic analysis. Type of test: functional, organism-based.
Test [4] deals with Caenorhabditis elegans. Briefly: Antiparasitic activity against Teladorsagia circumcincta dpy-31 transgenically-rescued Caenorhabditis elegans dpy-31 mutant TP224 assessed as induction of Dpy phenotype at 100 uM after 3 days by microscopic analysis. The format is functional, organism-based.
Test [5] deals with Teladorsagia circumcincta. Briefly: Antiparasitic activity against Teladorsagia circumcincta L3 assessed as induction of Dpy phenotype at 500 uM after 3 days by microscopic analysis. Type of test: functional, organism-based.

The structures appear in SMILES notation. The source made the active and inactive calls. No cut-off for these calls is given here. Where a SMILES comes first, the peptide text is derived from it. Some results are limits rather than exact numbers.

Turning to `C[C@H](NC(=O)[C@@H]1CCCN1C(=O)OC(C)(C)C)C(=O)N[C@@H](Cc1ccccc1)C(=O)NO` (HELM PEPTIDE1{[CC(C)(C)OC(=O)[*:2]].P.A.F.[ON[*:1]]}$$$$V2.0), the IC50 was 79.4 µM in test [1] (read-out: pIC50 (converted)) and 25.1 µM in test [2]. The result (in the test with Caenorhabditis elegans [3]; in the test on Caenorhabditis elegans [4]; in test [5]) was Active.
As to `C[C@H](NC(=O)[C@@H]1CCCN1C(=O)OCC1c2ccccc2-c2ccccc21)C(=O)N[C@@H](Cc1ccccc1)C(=O)NO` (HELM PEPTIDE1{[O=C(OCC1c2ccccc2-c2ccccc21)[*:2]].P.A.F.[ON[*:1]]}$$$$V2.0), the figures for the IC50 in test [1] (read-out: pIC50 (converted)) and in test [2] were 25.1 µM and 31.6 µM, respectively. Besides, the outcome (with Caenorhabditis elegans [3]; with Caenorhabditis elegans [4]; in test [5]) was Active.
For `O=C(C[C@@H](CCCC1CCCCC1)c1nc(-c2cc(C(=O)O)ccn2)no1)NO`, the results for the IC50 in test [1] (read-out: pIC50 (converted)) and in test [2] were 20 µM and 39.8 µM, respectively.
`COC(=O)[C@@H]1CCCN1C(=O)[C@H](C)CP(=O)(O)[C@H](Cc1ccccc1)NC(=O)[C@H](CCCCN)NC(=O)[C@@H]1CCCN1C(=O)OCc1ccccc1`: the IC50 in test [1] (read-out: IC50) was greater than 500 µM.
As for `CNC(=O)[C@@H](NC(=O)[C@H](CC(C)C)[C@H](O)C(=O)NO)C(C)(C)C` [MARIMASTAT], the IC50 in test [2] was 79.4 µM.

(Values after ChEMBL document CHEMBL3739343, “Identification and activity of inhibitors of the essential nematode-specific metalloprotease DPY-31” (Bioorg Med Chem Lett, 2015).)
